Test results reported in ChEMBL document CHEMBL3045735, “Antibacterial and molecular docking studies of entagenic acid, a bioactive principle from seed kernel of Entada pursaetha DC” (2012).
In brackets after ≈: the same amount, converted by molar mass.

Legend:
Type in all cases: functional
Escherichia coli [1] = assay: Antibacterial activity against Escherichia coli NCIM-2065 after 24 hr by agar diffusion assay
Escherichia coli [2] = assay: Antibacterial activity against Escherichia coli NCIM-2065 after 24 hr by broth dilution method; settings: NCIM-2065, 24 h
Bacillus subtilis [3] = assay: Antibacterial activity against Bacillus subtilis NCIM-2063 after 24 hr by broth dilution method; settings: NCIM-2063, 24 h
Alcaligenes faecalis [4] = assay: Antibacterial activity against Alcaligenes faecalis NCIM-2262 after 24 hr by broth dilution method; settings: NCIM-2262, 24 h
Bacillus subtilis [5] = assay: Antibacterial activity against Bacillus subtilis NCIM-2063 after 24 hr by agar diffusion assay
Pseudomonas aeruginosa [6] = assay: Antibacterial activity against Pseudomonas aeruginosa NCIM-2036 after 24 hr by broth dilution method; settings: NCIM-2036, 24 h
Proteus vulgaris [7] = assay: Antibacterial activity against Proteus vulgaris NCIM-2027 after 24 hr by agar diffusion assay
Staphylococcus aureus [8] = assay: Antibacterial activity against Staphylococcus aureus NCIM-2079 after 24 hr by broth dilution method; settings: NCIM-2079, 24 h
Pseudomonas aeruginosa [9] = assay: Antibacterial activity against Pseudomonas aeruginosa NCIM-2036 after 24 hr by agar diffusion assay
Bacillus cereus [10] = assay: Antibacterial activity against Bacillus cereus NCIM-2155 after 24 hr by broth dilution method; settings: NCIM-2155, 24 h
Klebsiella aerogenes [11] = assay: Antibacterial activity against Enterobacter aerogenes NCIM 2036 after 24 hr by broth dilution method; settings: NCIM-2036, 24 h
Klebsiella aerogenes [12] = assay: Antibacterial activity against Enterobacter aerogenes NCIM 2036 after 24 hr by agar diffusion assay
Proteus vulgaris [13] = assay: Antibacterial activity against Proteus vulgaris NCIM-2027 after 24 hr by broth dilution method; settings: NCIM-2027, 24 h
Staphylococcus aureus [14] = assay: Antibacterial activity against Staphylococcus aureus NCIM-2079 after 24 hr by agar diffusion assay
Alcaligenes faecalis [15] = assay: Antibacterial activity against Alcaligenes faecalis NCIM-2262 after 24 hr by agar diffusion assay
Bacillus cereus [16] = assay: Antibacterial activity against Bacillus cereus NCIM-2155 after 24 hr by agar diffusion assay

MIC (Escherichia coli [2]) [µg/mL]	MIC (Bacillus subtilis [3]) [µg/mL]	MIC (Alcaligenes faecalis [4]) [µg/mL]	MIC (Pseudomonas aeruginosa [6]) [µg/mL]	MIC (Staphylococcus aureus [8]) [µg/mL]	MIC (Bacillus cereus [10]) [µg/mL]	MIC (Klebsiella aerogenes [11]) [µg/mL]	MIC (Proteus vulgaris [13]) [µg/mL]	Structure (SMILES)	diameter of the inhibition zone (DIZ) (Escherichia coli [1]) [mm]	diameter of the inhibition zone (DIZ) (Bacillus subtilis [5]) [mm]	diameter of the inhibition zone (DIZ) (Proteus vulgaris [7]) [mm]	diameter of the inhibition zone (DIZ) (Pseudomonas aeruginosa [9]) [mm]	diameter of the inhibition zone (DIZ) (Klebsiella aerogenes [12]) [mm]	diameter of the inhibition zone (DIZ) (Staphylococcus aureus [14]) [mm]	diameter of the inhibition zone (DIZ) (Alcaligenes faecalis [15]) [mm]	diameter of the inhibition zone (DIZ) (Bacillus cereus [16]) [mm]
250 (≈ 512 µM)	100 (≈ 205 µM)	150 (≈ 307 µM)	150 (≈ 307 µM)	100 (≈ 205 µM)	100 (≈ 205 µM)	300 (≈ 614 µM)	250 (≈ 512 µM)	CC1(C)CC[C@]2(C(=O)O)[C@H](O)[C@H](O)[C@]3(C)C(=CC[C@@H]4[C@@]5(C)CC[C@H](O)C(C)(C)[C@@H]5CC[C@]43C)[C@@H]2C1 [ENTAGENIC ACID]	13	18	13.5	15	6.5	17.5	15	22
–	–	–	–	–	–	–	–	CN[C@@H]1[C@H](O[C@H]2[C@H](O[C@H]3[C@H](O)[C@@H](O)[C@H](N=C(N)N)[C@@H](O)[C@@H]3N=C(N)N)O[C@@H](C)[C@]2(O)C=O)O[C@@H](CO)[C@H](O)[C@H]1O [STREPTOMYCIN]	18.42	22.33	24.36	21.15	19.38	19.41	22.37	20.53
